In US8551988B2, “Benzimidazole derivatives: preparation and pharmaceutical applications” (Mei Pharma, Inc., priority 2003, dated 2013):
Where two headings read alike, the source gives them in different places.

Key:
[1] = biological target: HDAC1 enzyme (recombinant GST-HDAC1) (Homo sapiens (Human), UniProt Q13547); assay: In vitro HDAC assay (BIOMOL fluorescent-based HDAC activity assay), HDAC1; format: biochemical
Method: (§1) The assay has been carried out in 96 well format and the BIOMOL fluorescent-based HDAC activity assay has been applied. […] Flur de lys Developer was added and the reaction was incubated for 10 min. Briefly, deacetylation of the substrate sensitizes it to the developer, which then generates a fluorophore (symbol). The fluorophore is excited with 360 nm light and the emitted light (460 nm) is detected on a fluorometric plate reader (Tecan Ultra Microplate detection system, Tecan Group Ltd.).
(§2) The analytical software, Prism 3.0 has been used to generate IC50 from a series of data.

[2] = biological target: HDAC8 enzyme (recombinant GST-HDAC8) (Homo sapiens (Human), UniProt Q9BY41); assay: In vitro HDAC assay (BIOMOL fluorescent-based HDAC activity assay), HDAC8; format: biochemical
Method: as §1, §2

[3] = read-out: HDAC1 Enzyme Activity IC50
[4] = read-out: HDAC8 Enzyme Activity IC50

Chain of HDAC1 enzyme (recombinant GST-HDAC1) (Q13547 whole entry): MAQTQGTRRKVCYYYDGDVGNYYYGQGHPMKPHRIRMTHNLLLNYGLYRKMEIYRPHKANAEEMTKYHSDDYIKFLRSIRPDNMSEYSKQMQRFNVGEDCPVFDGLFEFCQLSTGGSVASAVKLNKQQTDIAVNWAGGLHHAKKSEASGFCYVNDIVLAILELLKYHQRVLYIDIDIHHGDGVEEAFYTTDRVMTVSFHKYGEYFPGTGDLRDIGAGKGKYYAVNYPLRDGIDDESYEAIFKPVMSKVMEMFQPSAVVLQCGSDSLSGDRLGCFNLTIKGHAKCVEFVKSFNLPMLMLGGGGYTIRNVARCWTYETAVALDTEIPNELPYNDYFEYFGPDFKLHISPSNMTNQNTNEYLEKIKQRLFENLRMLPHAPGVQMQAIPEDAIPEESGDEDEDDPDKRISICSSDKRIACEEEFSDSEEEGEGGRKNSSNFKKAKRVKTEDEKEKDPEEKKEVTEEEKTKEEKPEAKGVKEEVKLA
Chain of HDAC8 enzyme (recombinant GST-HDAC8) (Q9BY41 whole entry): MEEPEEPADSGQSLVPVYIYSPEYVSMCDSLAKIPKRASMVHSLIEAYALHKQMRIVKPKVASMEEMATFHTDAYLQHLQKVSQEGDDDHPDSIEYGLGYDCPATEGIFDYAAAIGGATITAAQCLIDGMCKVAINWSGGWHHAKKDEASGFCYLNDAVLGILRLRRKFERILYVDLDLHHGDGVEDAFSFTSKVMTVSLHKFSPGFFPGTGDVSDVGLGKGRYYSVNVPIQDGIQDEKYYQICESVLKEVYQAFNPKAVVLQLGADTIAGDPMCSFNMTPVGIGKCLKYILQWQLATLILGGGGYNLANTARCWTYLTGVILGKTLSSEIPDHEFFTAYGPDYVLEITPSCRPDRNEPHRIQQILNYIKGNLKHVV

| IC50 [1, 3] | IC50 [2, 4] | IC50 ([1]; Free base, read-out: IC50 (HDAC1)) | IC50 ([2]; Free base, read-out: IC50 (HDAC8)) | SMILES |
| --- | --- | --- | --- | --- |
| 1910 nM | 537 nM | – | – | O=C(/C=C/c1ccc2c(c1)nc(-c1ccsc1)n2CCCO)NO [Compound 20, N-Hydroxy-3-[1-(3-hydroxy-propyl)-2-thiophen-3-yl-1H-benzimidazol-5-yl]-acrylamide] |
| 64 nM | 238 nM | – | – | CC(C)Cc1nc2cc(/C=C/C(=O)NO)ccc2n1CCCO [Compound 21, N-Hydroxy-3-[1-(3-hydroxy-propyl)-2-isobutyl-1H-benzimidazol-5-yl]-acrylamide] |
| 529 nM | 402 nM | – | – | CCCCCCCCc1nc2cc(/C=C/C(=O)NO)ccc2n1CCCO [Compound 23, N-Hydroxy-3-[1-(3-hydroxy-propyl)-2-octyl-1H-benzimidazol-5-yl]-acrylamide] |
| 92 nM | 329 nM | – | – | O=C(/C=C/c1ccc2c(c1)nc(CCc1ccccc1)n2CCc1cccnc1)NO [Compound 27, N-Hydroxy-3-(2-phenethyl-1-(2-pyridin-3-yl-ethyl)-1H-benzimidazol-5-yl]-acrylamide] |
| 195 nM | 724 nM | – | – | O=C(/C=C/c1ccc2c(c1)nc(CCc1ccccc1)n2CCCN1CCCC1=O)NO [Compound 30, N-Hydroxy-3-{1-[3-(2-oxo-pyrrolidin-1-yl)-propyl]-2-phenethyl-1H-benzimidazol-5-yl}-acrylamide] |
| 449 nM | 1450 nM | – | – | O=C(/C=C/c1ccc2c(c1)nc(CCc1ccccc1)n2Cc1ccccc1)NO [Compound 33, N-Hydroxy-3-(1-Benzyl-2-phenethyl-1H-benzimidazol-5-yl}-acrylamide] |
| 1460 nM | 846 nM | – | – | CC(C)Cc1nc2cc(/C=C/C(=O)NO)ccc2n1Cc1ccccc1 [Compound 34, N-Hydroxy-3-(1-Benzyl-2-isobutyl-1H-benzimidazol-5-yl}-acrylamide] |
| 371 nM | 412 nM | – | – | O=C(/C=C/c1ccc2c(c1)ncn2Cc1ccccc1)NO [Compound 35, N-Hydroxy-3-(1-Benzyl-1H-benzimidazol-5-yl}-acrylamide] |
| 479 nM | 237 nM | – | – | O=C(/C=C/c1ccc2c(c1)ncn2CCc1ccccn1)NO [Compound 42, N-Hydroxy-3-[1-(2-pyridin-2-yl-ethyl)-1H-benzimidazol-5-yl]-acrylamide] |
| 947 nM | 192 nM | – | – | CCn1c(C)nc2cc(/C=C/C(=O)NO)ccc21 [Compound 43, N-Hydroxy-3-(1-Ethyl-2-methyl-1H-benzimidazol-5-yl]-acrylamide] |
| 72 nM | 255 nM | – | – | CCN(CC)CCn1c(CCc2ccccc2)nc2cc(/C=C/C(=O)NO)ccc21 [Compound 66, N-Hydroxy-3-[1-(2-diethylamino-ethyl)-2-phenethyl-1H-benzimidazol-5-yl]-acrylamide] |
| – | – | 37 nM | 254 nM | O=C(/C=C/c1ccc2c(c1)nc(CCc1ccccc1)n2CCN1CCCCC1)NO [Compound 67, N-Hydroxy-3-[2-phenethyl-1-(piperidin-1-yl-ethyl)-1H-benzimidazol-5-yl]-acrylamide] |

| SMILES | IC50 [1, 3] | IC50 [2, 4] | IC50 ([1]; Free base, read-out: IC50 (HDAC1)) | IC50 ([2]; Free base, read-out: IC50 (HDAC8)) |
| --- | --- | --- | --- | --- |
| CC(C)Cc1nc2cc(/C=C/C(=O)NO)ccc2n1CCc1ccccc1 [Compound 25, N-Hydroxy-3-(2-isobutyl-1-phenethyl-1H-benzimidazol-5-yl]-acrylamide] | 1320 nM | 601 nM | – | – |
| O=C(/C=C/c1ccc2c(c1)nc(CCc1ccccc1)n2CCCN1CCOCC1)NO [Compound 31, N-Hydroxy-3-[1-(3-morpholin-4-propyl]-2-phenethyl-1H-benzimidazol-5-yl}-acrylamide] | 246 nM | 1090 nM | – | – |
